In ChEMBL document CHEMBL4265960, “Dithiocarbamates: Efficient metallo-β-lactamase inhibitors with good antibacterial activity when combined with meropenem” (Bioorg Med Chem Lett, 2018):
Values after ≈ are worked out from the molar mass of the structure shown. Active and inactive are the calls of the source. The rule behind the calls is not given here.

Legend:
Citrobacter freundii [1] = test: Inhibition of Citrobacter freundii NDM1 assessed as potentiation of meropenem-induced antibacterial activity by measuring meropenem MIC at 64 ug/ml after 16 to 18 hrs by broth microdilution method (reference value: 20 ug/ml)
Escherichia coli [2] = test: Inhibition of Escherichia coli IMP4 assessed as potentiation of meropenem-induced antibacterial activity by measuring meropenem MIC at 64 ug/ml after 16 to 18 hrs by broth microdilution method (reference value: 20 to 160 ug/ml)
Proteus mirabilis [3] = test: Inhibition of Proteus mirabilis NDM1 assessed as potentiation of meropenem-induced antibacterial activity by measuring meropenem MIC at 64 ug/ml after 16 to 18 hrs by broth microdilution method (reference value: 20 to 160 ug/ml)
Escherichia coli [4] = test: Inhibition of Escherichia coli IMP4 assessed as potentiation of meropenem-induced antibacterial activity by measuring zone of inhibition at 10 uL after 16 to 18 hrs by disc diffusion method (reference value: 9.8 +/- 0.6 millimeter)
[5] = biological target: Metallo-beta-lactamase type 2 (Klebsiella pneumoniae) (UniProt C7C422)
[6] = biological target: T1, Metallo-beta-lactamase NDM-4 (Escherichia coli) (UniProt H6WZS9); test: Inhibition of Escherichia coli NDM4 assessed as potentiation of meropenem-induced antibacterial activity by measuring zone of inhibition at 10 uL after 16 to 18 hrs by disc diffusion method (reference value: 9.6 +/- 0.5 millimeter)
T1 sequence (whole entry): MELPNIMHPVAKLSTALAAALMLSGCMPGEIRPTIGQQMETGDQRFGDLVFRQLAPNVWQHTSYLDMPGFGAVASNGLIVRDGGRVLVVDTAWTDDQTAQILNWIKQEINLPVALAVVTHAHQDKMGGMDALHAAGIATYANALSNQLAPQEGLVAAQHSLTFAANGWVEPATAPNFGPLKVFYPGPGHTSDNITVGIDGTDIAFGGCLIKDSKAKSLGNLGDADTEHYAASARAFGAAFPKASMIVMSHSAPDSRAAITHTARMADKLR

[7] = biological target: Beta-lactamase NDM-1 (Escherichia coli) (UniProt E5KIY2)
[8] = biological target: Beta-lactamase (Klebsiella pneumoniae) (UniProt Q4LDF1)
Escherichia coli [9] = test: Inhibition of Escherichia coli IMP4 assessed as potentiation of meropenem-induced bactericidal activity by measuring bacterial count at 4 times MIC incubated for 8 hrs followed by replating on agar plates and further incubated for 16 to 18 hrs measured for 24 hrs by time kill assay
HeLa [10] = test: Cytotoxicity against human HeLa cells after 24 hrs by CCK8 assay; format: cell-based
Escherichia coli [11] = test: (§1) Inhibition of Escherichia coli IMP4 assessed as potentiation of meropenem-induced bactericidal activity by measuring reduction in bacterial colonies at 8 times MIC incubated up to 3 hrs followed by replating on agar plates and further incubated for 16 to 18 hrs measured for 24 hrs by time kill assay
Escherichia coli [12] = test: Inhibition of Escherichia coli IMP4 assessed as potentiation of meropenem-induced antibacterial activity by measuring reduction in bacterial growth at 64 ug/ml after 16 to 18 hrs in presence of ZnCl2 by broth microdilution method
[13] = biological target: Beta-lactamase NDM-1 (Escherichia coli) (UniProt E5KIY2); remark: listed apart in the source
Escherichia coli [14] = test: Inhibition of Escherichia coli IMP4 assessed as potentiation of meropenem-induced antibacterial activity by measuring bacterial growth at 64 ug/ml after 16 to 18 hrs by broth microdilution method (reference value: 93.43 +/- 2.12%); parameters: scale not given: the % may be the effect or the level left
Escherichia coli [15] = test: Inhibition of Escherichia coli IMP4 assessed as potentiation of meropenem-induced bactericidal activity by measuring reduction in bacterial colonies at 8 times MIC incubated up to 8 hrs followed by replating on agar plates and further incubated for 16 to 18 hrs measured for 24 hrs by time kill assay
[16] = biological target: Beta-lactamase NDM-1 (Escherichia coli) (UniProt E5KIY2); remark: listed apart in the source
Erythrocyte = test: Hemolytic activity against sheep RBC at 1.953 to 1000 ug/ml after 1 hr; format: ADME, cell-based, Ovis aries
HeLa [17] = test: Cytotoxicity against human HeLa cells at 32 ug/ml after 24 hrs by calcein-AM/propidium iodide staining based fluorescence microscopic analysis; format: cell-based
Escherichia coli [18] = test: Toxicity against Escherichia coli harboring IMP4 assessed as reduction in bacterial growth after 16 to 18 hrs by broth microdilution method; format: organism-based
Proteus mirabilis [19] = test: Inhibition of Proteus mirabilis NDM1 assessed as potentiation of meropenem-induced antibacterial activity by measuring fold reduction in meropenem MIC at 64 ug/ml after 16 to 18 hrs by broth microdilution method relative to meropenem alone
Escherichia coli [20] = test: Toxicity against Escherichia coli harboring NDM1 after 16 to 18 hrs by broth microdilution method; format: organism-based
Citrobacter freundii [21] = test: Inhibition of Citrobacter freundii NDM1 assessed as potentiation of meropenem-induced antibacterial activity by measuring fold reduction in meropenem MIC at 64 ug/ml after 16 to 18 hrs by broth microdilution method relative to meropenem alone
Escherichia coli [22] = test: Inhibition of Escherichia coli IMP4 assessed as potentiation of meropenem-induced bactericidal activity by measuring bacterial count at 4 times MIC incubated for 24 hrs followed by replating on agar plates and further incubated for 16 to 18 hrs measured for 24 hrs by time kill assay
Escherichia coli [23] = test: as §1, with “colonies at 4 to 8 times” for “colonies at 8 times”, “MIC incubated for 3 hrs” for “MIC incubated up to 3 hrs”
Escherichia coli [24] = test: Inhibition of Escherichia coli IMP4 assessed as potentiation of meropenem-induced bactericidal activity by measuring bacterial count at 8 times MIC incubated for 24 hrs followed by replating on agar plates and further incubated for 16 to 18 hrs measured for 24 hrs by time kill assay

MIC (Citrobacter freundii [1]) | MIC (Escherichia coli [2]) | MIC (Proteus mirabilis [3]) | inhibition zone (IZ) (Escherichia coli [4]) | MIC [5] | inhibition zone (IZ) [6] | MIC [7] | MIC [8] | SMILES | further results
4 µg/mL | 1 to 8 µg/mL | 2 to 4 µg/mL | inactive | 1 to 8 µg/mL (≈ 3.15 to 25.2 µM) | inactive | 4 to 16 µg/mL (≈ 12.6 to 50.4 µM) | < 1 µg/mL | CCCCCCCCN(CCCCCCCC)C(=S)S | 
< 0.0312 µg/mL | < 16 µg/mL | 0.5 to 4 µg/mL | 17.2 mm | < 2 µg/mL | 18.9 mm | 1 to 16 µg/mL | < 2 µg/mL | CCN(CC)C(=S)[S-].[Na+] [DITIOCARB SODIUM] | Activity (Escherichia coli [9]): 3 to 4 log10CFU/ml; IC50 (HeLa [10]): > 1280 µg/mL; Activity (Escherichia coli [11]): Active
inactive | 2 to 16 µg/mL | 0.25 µg/mL | inactive | inactive | inactive | 16 µg/mL (≈ 90.2 µM) | 16 µg/mL (≈ 90.2 µM) | CCCCCCNC(=S)S | 
2 µg/mL | 4 to 16 µg/mL | 4 to 8 µg/mL | inactive | 4 to 16 µg/mL (≈ 16.8 to 67.1 µM) | inactive | 8 to 16 µg/mL (≈ 33.6 to 67.1 µM) | 8 to 16 µg/mL (≈ 33.6 to 67.1 µM) | S=C(S)N1CCN(C(=S)S)CC1 | 
 |  |  | 20.3 mm |  | 22.9 mm |  |  | O=C(O)CN1CCN(CC(=O)O)CCN(CC(=O)O)CC1 | Activity (Escherichia coli [23]): Active
 |  |  |  |  |  |  |  | CCN(CC)C(=S)[S][Na] [DITIOCARB SODIUM] | Activity (Erythrocyte): Non-Toxic; Activity (HeLa [17]): Non-Toxic; Activity (Escherichia coli [18]): Non-Toxic; MIC (Escherichia coli [20]): > 128 µg/mL
8 µg/mL | 4 to 16 µg/mL | 8 to 16 µg/mL | inactive | 8 to 16 µg/mL (≈ 30.6 to 61.2 µM) | inactive | 8 µg/mL (≈ 30.6 µM) | 16 µg/mL (≈ 61.2 µM) | CCCCCCN(CCCCCC)C(=S)S | 
inactive | inactive | inactive | inactive | inactive | inactive | inactive | inactive | CCCCCCCCCCCCCCNC(=S)S | 

SMILES | MIC (Citrobacter freundii [1]) | MIC (Escherichia coli [2]) | MIC (Proteus mirabilis [3]) | inhibition zone (IZ) (Escherichia coli [4]) | MIC [5] | inhibition zone (IZ) [6] | MIC [7] | MIC [8] | further results
S=C([S-])N1CCCCC1.[Na+] |  | < 16 µg/mL | 4 to 16 µg/mL | 24.2 mm | < 0.0312 µg/mL | 23.9 mm | 0.25 µg/mL | < 0.0312 µg/mL | Activity (Escherichia coli [12]): inactive; MBC [13]: 1 µg/mL; Activity (Escherichia coli [14]): 3.55%; Activity (Escherichia coli [15]): Active; MBC [16]: < 0.0312 µg/mL; Activity (Erythrocyte): Non-Toxic; Activity (HeLa [17]): Non-Toxic; Activity (Escherichia coli [18]): Non-Toxic; fold change (FC) (Proteus mirabilis [19]): < 320; IC50 (HeLa [10]): 634 µg/mL; MIC (Escherichia coli [20]): > 128 µg/mL; fold change (FC) (Citrobacter freundii [21]): < 320; Activity (Escherichia coli [22]): 1 to 2 log10CFU/ml
S=C([S-])N1CCCC1.[Na+] |  | < 16 µg/mL | 2 to 8 µg/mL | 22.8 mm | < 0.0312 µg/mL | 22.1 mm | 2 µg/mL | < 0.0312 µg/mL | Activity (Erythrocyte): Non-Toxic; Activity (HeLa [17]): Non-Toxic; Activity (Escherichia coli [18]): Non-Toxic; fold change (FC) (Proteus mirabilis [19]): < 320; IC50 (HeLa [10]): 349 µg/mL; MIC (Escherichia coli [20]): > 128 µg/mL; Activity (Escherichia coli [24]): 9 to 10 log10CFU/ml
S=C(S)N1CCOCC1 | 2 µg/mL | 2 to 16 µg/mL | 16 µg/mL |  | 4 to 16 µg/mL (≈ 24.5 to 98 µM) |  | 8 µg/mL (≈ 49 µM) | 8 to 16 µg/mL (≈ 49 to 98 µM) | 
